The values below come from patent publication US8143393B2, “Substituted 4-amino-pyrrolotriazine derivatives useful for treating hyper-proliferative disorders and diseases associated with angiogenesis” (Bayer HealthCare LLC, priority 2005, dated 2012).

SMILES strings stand for the structures.

One test deals with T1, FGFR-1 (Homo sapiens, UniProt P11362).
T1 construct: GST; made in house
T1 sequence (P11362 22-822): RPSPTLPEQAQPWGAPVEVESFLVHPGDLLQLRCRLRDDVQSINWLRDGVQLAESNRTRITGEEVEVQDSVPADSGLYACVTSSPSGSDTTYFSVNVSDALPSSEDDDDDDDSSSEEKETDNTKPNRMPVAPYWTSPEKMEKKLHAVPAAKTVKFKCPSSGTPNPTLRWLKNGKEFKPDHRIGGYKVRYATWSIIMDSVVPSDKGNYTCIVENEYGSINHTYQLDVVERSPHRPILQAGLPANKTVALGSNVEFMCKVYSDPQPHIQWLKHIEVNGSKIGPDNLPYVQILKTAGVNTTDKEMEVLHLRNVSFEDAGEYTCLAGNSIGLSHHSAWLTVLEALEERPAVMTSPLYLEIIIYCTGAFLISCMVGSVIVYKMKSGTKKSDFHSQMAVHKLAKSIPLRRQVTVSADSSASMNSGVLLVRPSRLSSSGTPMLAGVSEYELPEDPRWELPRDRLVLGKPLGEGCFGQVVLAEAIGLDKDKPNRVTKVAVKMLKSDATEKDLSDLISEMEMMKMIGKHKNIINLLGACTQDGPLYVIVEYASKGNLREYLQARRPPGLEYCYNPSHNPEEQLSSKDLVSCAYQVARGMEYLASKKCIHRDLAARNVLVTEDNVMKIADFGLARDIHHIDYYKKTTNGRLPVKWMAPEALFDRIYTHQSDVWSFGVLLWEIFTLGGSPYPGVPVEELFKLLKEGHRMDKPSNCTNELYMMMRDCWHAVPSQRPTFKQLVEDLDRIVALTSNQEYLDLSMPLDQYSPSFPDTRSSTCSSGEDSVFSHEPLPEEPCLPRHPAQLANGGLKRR
Briefly: FGFR-1 TR-FRET biochemical assay. To be noted: 0.6 uM ATP, 5 nM FGFR1-GST; bounds given in nM. The method in brief:
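In this LANCE time-resolved FRET format, compounds at final 10 μM–0.128 nM (1% DMSO, 1:5 series) were preincubated before enzyme start. Reactions ran for one hour at room temperature with 0.6 uM ATP, 25 nM biotinylated poly GT and 5 nM GST-tagged FGFR1. Inhibition was calculated from the 665/615 nm ratio minus the ATP-free background.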
Turning to `CN1CCN(C(=O)c2cc(-c3ccc(NC(=O)Nc4cc(C(F)(F)F)ccc4F)c(F)c3)c3c(N)ncnn23)CC1` [Example 161, N-(4-{4-amino-7-[(4-methylpiperazin-1-yl)carbonyl]pyrrolo[2,1-f][1,2,4]triazin-5-yl}-2-fluorophenyl)-N′-[2-fluoro-5-(trifluoromethyl)phenyl]urea], the half-inhibitory concentration (IC50) (as a rule, the concentration needed to halve the response being measured) is under 10 nM.

`Nc1ncnn2c(CN3CCNC(=O)C3)cc(-c3ccc(NC(=O)Nc4cc(C(F)(F)F)ccn4)c(F)c3)c12` [Example 163, N-(4-{4-amino-7-[(3-oxopiperazin-1-yl)methyl]-pyrrolo [2,1-f][1,2,4]triazin-5-yl}-2-fluorophenyl)-N′-[4-(trifluoromethyl)-pyridin-2-yl]urea]: the IC50 is under 10 nM. On the same count and under the same terms, the figure for `Nc1ncnn2c(CN3CCNC(=O)C3)cc(-c3cc(F)c(NC(=O)Nc4cc(C(F)(F)F)ccc4F)cc3F)c12` [Example 164, N-(4-{4-amino-7-[(3-oxopiperazin-1-yl)methyl]-pyrrolo [2,1-f][1,2,4]triazin-5-yl}-2,5-difluorophenyl)-N′-[2-fluoro-5-(trifluoromethyl)phenyl]urea] is under 10 nM; for `Cc1cc(-c2cc(CN3CCNC(=O)C3)n3ncnc(N)c23)ccc1NC(=O)Nc1cc(C(F)(F)F)ccc1F` [Example 165, N-(4-{4-amino-7-[(3-oxopiperazin-1-yl)methyl]-pyrrolo[2,1-f][1,2,4]triazin-5-yl}-2-methylphenyl)-N′-[2-fluoro-5-(trifluoromethyl)-phenyl]urea] it is under 10 nM. Consider `Nc1ncnn2c(CN3CCCOCC3)cc(-c3ccc(NC(=O)Nc4cc(C(F)(F)F)ccc4F)cc3)c12` [Example 167, N-{4-[4-amino-7-(1,4-oxazepan-4-ylmethyl)pyrrolo[2,1-f][1,2,4]triazin-5-yl]phenyl}-N′-[2-fluoro-5-(trifluoromethyl)phenyl]urea], for which the IC50 is under 10 nM. As to `Nc1ncnn2c(CN3CCCOCC3)cc(-c3cc(F)c(NC(=O)Nc4cc(C(F)(F)F)ccc4F)cc3F)c12` [Example 168, N-{4-[4-amino-7-(1,4-oxazepan-4-ylmethyl)pyrrolo[2,1-f][1,2,4]triazin-5-yl]-2,5-difluorophenyl}-N′-[2-fluoro-5-(trifluoromethyl)phenyl]urea], the IC50 was under 10 nM. On the same count and under the same terms, for `Nc1ncnn2c(C3CCN(C(=O)CO)CC3)cc(-c3ccc(NC(=O)Nc4cc(C(F)(F)F)ccc4F)c(Cl)c3)c12` [Example 173, N-{4-[4-amino-7-(1-glycoloylpiperidin-4-yl)pyrrolo[2,1-f][1,2,4]triazin-5-yl]-2-chlorophenyl}-N′-[2-fluoro-5-(trifluoromethyl)phenyl]urea] the value was under 10 nM. Molecule `Nc1ncnn2c(CN3CCCOCC3)cc(-c3ccc(NC(=O)Nc4cc(C(F)(F)F)ccn4)cc3)c12` [Example 176, N-{4-[4-amino-7-(1,4-oxazepan-4-ylmethyl)pyrrolo[2,1-f][1,2,4]triazin-5-yl]phenyl}-N′-[4-(trifluoromethyl)pyridin-2-yl]urea] came in with an IC50 of under 10 nM. `Nc1ncnn2c(CN3CCCOCC3)cc(-c3ccc(NC(=O)Nc4cc(C(F)(F)F)ccc4F)c(F)c3)c12` [Example 177, N-{4-[4-amino-7-(1,4-oxazepan-4-ylmethyl)pyrrolo[2,1-f][1,2,4]triazin-5-yl]-2-fluorophenyl}-N′-[2-fluoro-5-(trifluoromethyl)phenyl]urea] yielded an IC50 of under 10 nM.

As for `Nc1ncnn2c(CN3CCCOCC3)cc(-c3ccc(NC(=O)Nc4cc(C(F)(F)F)ccn4)c(F)c3)c12` [Example 179, N-{4-[4-amino-7-(1,4-oxazepan-4-ylmethyl)pyrrolo[2,1-f][1,2,4]triazin-5-yl]-2-fluorophenyl}-N′-[4-(trifluoromethyl)pyridin-2-yl]urea], the IC50 was under 10 nM. `Cc1cc(-c2cc(CN3CCCOCC3)n3ncnc(N)c23)ccc1NC(=O)Nc1cc(C(F)(F)F)ccn1` [Example 180, 1-{4-[4-amino-7-(1,4-oxazepan-4-ylmethyl)pyrrolo[2,1-f][1,2,4]triazin-5-yl]-2-methylphenyl}-3-[4-(trifluoromethyl)pyridin-2-yl]urea] gave an IC50 of under 10 nM. On the same count and under the same terms, the figure for `Cc1cc(-c2cc(CN3CCCOCC3)n3ncnc(N)c23)ccc1NC(=O)Nc1cc(C(F)(F)F)ccc1F` [Example 181, N-{4-[4-amino-7-(1,4-oxazepan-4-ylmethyl)pyrrolo[2,1-f][1,2,4]triazin-5-yl]-2-methylphenyl}-N′-[2-fluoro-5-(trifluoromethyl)phenyl]urea] is under 10 nM; for `COC[C@@H]1CCCN1CCCc1cc(-c2ccc(NC(=O)Nc3cc(C(F)(F)F)ccc3F)c(F)c2)c2c(N)ncnn12` [Example 184, N-[4-(4-amino-7-{3-[(2S)-2-(methoxymethyl)pyrrolidin-1-yl]propyl}pyrrolo[2,1-f][1,2,4]triazin-5-yl)-2-fluorophenyl]-N′-[2-fluoro-5-(trifluoromethyl)phenyl]urea] it is under 10 nM; for `Nc1ncnn2c(CCCN3CCCC3)cc(-c3ccc(NC(=O)Nc4cc(C(F)(F)F)ccc4F)c(F)c3)c12` [Example 186, N-{4-[4-amino-7-(3-pyrrolidin-1-ylpropyl)pyrrolo[2,1-f][1,2,4]triazin-5-yl]-2-fluorophenyl}-N′-[2-fluoro-5-(trifluoromethyl)phenyl]urea] it is under 10 nM. Still for that read-out and setting: the figure for `CN1CCN(CCCc2cc(-c3ccc(NC(=O)Nc4cc(C(F)(F)F)ccc4F)c(F)c3)c3c(N)ncnn23)CC1` [Example 187, N-(4-{4-amino-7-[3-(4-methylpiperazin-1-yl)propyl]pyrrolo[2,1-f][1,2,4]triazin-5-yl}-2-fluorophenyl)-N′-[2-fluoro-5-(trifluoromethyl)phenyl]urea] is under 10 nM; for `CC(=O)N1CCN(CCCc2cc(-c3ccc(NC(=O)Nc4cc(C(F)(F)F)ccc4F)c(F)c3)c3c(N)ncnn23)CC1` [Example 188, N-(4-{7-[3-(4-acetylpiperazin-1-yl)propyl]-4-aminopyrrolo[2,1-f][1,2,4]triazin-5-yl}-2-fluorophenyl)-N′-[2-fluoro-5-(trifluoromethyl)phenyl]urea] it is under 10 nM. Same read-out and setting: for `Nc1ncnn2c(CCCN3CCS(=O)(=O)CC3)cc(-c3ccc(NC(=O)Nc4cc(C(F)(F)F)ccc4F)c(F)c3)c12` [Example 189, N-(4-{4-amino-7-[3-(1,1-dioxidothiomorpholin-4-yl)propyl]pyrrolo[2,1-f][1,2,4]triazin-5-yl}-2-fluorophenyl)-N′-[2-fluoro-5-(trifluoromethyl)phenyl]urea] the value was under 10 nM; for `Nc1ncnn2c(CCCN3CCOCC3)cc(-c3cc(F)c(NC(=O)Nc4cc(C(F)(F)F)ccc4F)cc3F)c12` [Example 190, N-{4-[4-amino-7-(3-morpholin-4-ylpropyl)pyrrolo[2,1-f][1,2,4]triazin-5-yl]-2,5-difluorophenyl}-N′-[2-fluoro-5-(trifluoromethyl)phenyl]urea], under 10 nM.

In turn, `Nc1ncnn2c(CCCN3CCOCC3)cc(-c3ccc(NC(=O)Nc4cc(C(F)(F)F)ccn4)c(F)c3)c12` [Example 191, N-{4-[4-amino-7-(3-morpholin-4-ylpropyl)pyrrolo[2,1-f][1,2,4]triazin-5-yl]-2-fluorophenyl}-N′-[4-(trifluoromethyl)pyridin-2-yl]urea] returned an IC50 of under 10 nM. Same read-out and setting: for `Nc1ncnn2c(CCCN3CCCOCC3)cc(-c3ccc(NC(=O)Nc4cc(C(F)(F)F)ccc4F)c(F)c3)c12` [Example 193, N-(4-{4-amino-7-[3-(1,4-oxazepan-4-yl)propyl]pyrrolo[2,1-f][1,2,4]triazin-5-yl}-2-fluorophenyl)-N′-[2-fluoro-5-(trifluoromethyl)phenyl]urea] the value was under 10 nM. Still for that read-out and setting: for `CN(C)CCCc1cc(-c2ccc(NC(=O)Nc3cc(C(F)(F)F)ccc3F)c(F)c2)c2c(N)ncnn12` [Example 194, N-(4-{4-amino-7-[3-(dimethylamino)propyl]pyrrolo[2,1-f][1,2,4]triazin-5-yl}-2-fluorophenyl)-N′-[2-fluoro-5-(trifluoromethyl)phenyl]urea] the value was under 10 nM; for `Nc1ncnn2c(CCCN3CCNC(=O)C3)cc(-c3ccc(NC(=O)Nc4cc(C(F)(F)F)ccc4F)c(F)c3)c12` [Example 195, N-(4-{4-amino-7-[3-(3-oxopiperazin-1-yl)propyl]pyrrolo[2,1-f][1,2,4]triazin-5-yl}-2-fluorophenyl)-N′-[2-fluoro-5-(trifluoromethyl)phenyl]urea], under 10 nM. On the same count and under the same terms, for `Nc1ncnn2c(CCCN3CCSCC3)cc(-c3ccc(NC(=O)Nc4cc(C(F)(F)F)ccc4F)c(F)c3)c12` [Example 196, N-{4-4-[4-amino-7-(3-thiomorpholin-4-ylpropyl)pyrrolo[2,1-f][1,2,4]triazin-5-yl]-2-fluorophenyl}-N′-[2-fluoro-5-(trifluoromethyl)phenyl]urea] the value was 10 to 100 nM. Regarding `CC(C)(C)OC(=O)N1CCC(c2cc(-c3ccc(NC(=O)Nc4cc(C(F)(F)F)ccc4F)c(F)c3)c3c(N)ncnn23)C1` (stereo not drawn) [Example 198, tert-butyl 3-{4-amino-5-[3-fluoro-4-({[2-fluoro-5-(trifluoromethyl)phenyl]carbamoyl}amino)phenyl]pyrrolo[2,1-f][1,2,4]triazin-7-yl}pyrrolidine-1-carboxylate], the IC50 is over 100 nM. Still for that read-out and setting: for `Nc1ncnn2c(C3CCNC3)cc(-c3ccc(NC(=O)Nc4cc(C(F)(F)F)ccc4F)c(F)c3)c12` (stereo not drawn) [Example 200, N-[4-(4-amino-7-pyrrolidin-3-ylpyrrolo[2,1-f][1,2,4]triazin-5-yl)-2-fluorophenyl]-N′-[2-fluoro-5-(trifluoromethyl)phenyl]urea] the value was 10 to 100 nM; for `CS(=O)(=O)N1CCC(c2cc(-c3ccc(NC(=O)Nc4cc(C(F)(F)F)ccc4F)c(F)c3)c3c(N)ncnn23)C1` (stereo not drawn) [Example 201, N-(4-{4-amino-7-[1-(methylsulfonyl)pyrrolidin-3-yl]pyrrolo[2,1-f][1,2,4]triazin-5-yl}-2-fluorophenyl)-N′-[2-fluoro-5-(trifluoromethyl)phenyl]urea], under 10 nM.

Staying with this test, now noted: upper bound of the bin 'greater than 100 nM but less than 1 μM' (lower bound in E1).
Take `CC(C)(C)OC(=O)N1CCC(c2cc(-c3ccc(NC(=O)Nc4cc(C(F)(F)F)ccc4F)c(F)c3)c3c(N)ncnn23)C1` (stereo not drawn) [Example 198, tert-butyl 3-{4-amino-5-[3-fluoro-4-({[2-fluoro-5-(trifluoromethyl)phenyl]carbamoyl}amino)phenyl]pyrrolo[2,1-f][1,2,4]triazin-7-yl}pyrrolidine-1-carboxylate]: the IC50 was under 1000 nM.
